Where two headings read alike, the source gives them in different places.
Legend:
CDK-9/Cyclin T1 = CDK-9/Cyclin T1 (Homo sapiens, UniProt P50750); experiment: CDK inhibition assay, CDK-9/Cyclin T1 against substrate peptide, 33P-ATP; assay type: biochemical; conditions: at 500 nM
Procedure: (50-1000 cpm/pmole) and incubated for 30 min at room temperature. Assays were stopped by addition of 5 µl of 0.5 M (3%) orthophosphoric acid and then harvested onto P81 Unifilter plates with a wash buffer of 50 mM orthophosphoric acid.

CDK-2/cyclin A = CDK-2/cyclin A (Homo sapiens, UniProt P24941); experiment: CDK inhibition assay, CDK-2/cyclin A against Histone HI, 33P-ATP; assay type: biochemical; conditions: at 500 nM
Procedure: Compounds were evaluated for their ability to inhibit CDK2 and CDK9 as given below.
CDK-2/cyclin A (5-20 mU diluted in 50 mM Hepes pH 7.5, 1 mM DTT, 0.02% Brij35, 100 mM NaCl) was assayed against Histone HI in a final volume of 25.5 µl containing 50 mM Hepes pH7.5, 1 mM DTT, 0.02% Brij35, 100 mM NaCl, Histone HI (1 mg/ml), 10 mM magnesium acetate and 0.02 mM [33P-g-ATP](500-1000 cpm/pmole) and incubated for 30 min at room temperature. Assays were stopped by addition of 5 µl of 0.5 M (3%) orthophosphoric acid and then harvested onto P81 Unifilter plates with a wash buffer of 50 mM orthophosphoric acid.

[1] = Table-6, read-out: In vitro CDK9 % of inhibition
[2] = Table-6, read-out: In vitro CDK2 % of inhibition
[3] = Table-7, read-out: In vitro CDK9 % of inhibition
[4] = read-out: inhibition against CDK9
[5] = Table-7, read-out: In vitro CDK2 % of inhibition
[6] = read-out: inhibition against CDK2

Chain of CDK-9/Cyclin T1 (P50750 whole entry): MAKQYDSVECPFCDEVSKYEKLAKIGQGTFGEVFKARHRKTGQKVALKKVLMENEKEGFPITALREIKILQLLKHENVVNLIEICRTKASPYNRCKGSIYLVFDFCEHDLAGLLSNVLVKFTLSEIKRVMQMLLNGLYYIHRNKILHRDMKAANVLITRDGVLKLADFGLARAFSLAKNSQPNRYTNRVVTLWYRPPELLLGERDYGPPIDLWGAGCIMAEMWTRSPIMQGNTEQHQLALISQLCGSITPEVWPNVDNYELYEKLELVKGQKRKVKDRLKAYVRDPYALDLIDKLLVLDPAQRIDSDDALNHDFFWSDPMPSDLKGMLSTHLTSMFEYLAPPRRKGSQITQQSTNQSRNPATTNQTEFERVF
Chain of CDK-9/Cyclin T1 (O60563 whole entry partner): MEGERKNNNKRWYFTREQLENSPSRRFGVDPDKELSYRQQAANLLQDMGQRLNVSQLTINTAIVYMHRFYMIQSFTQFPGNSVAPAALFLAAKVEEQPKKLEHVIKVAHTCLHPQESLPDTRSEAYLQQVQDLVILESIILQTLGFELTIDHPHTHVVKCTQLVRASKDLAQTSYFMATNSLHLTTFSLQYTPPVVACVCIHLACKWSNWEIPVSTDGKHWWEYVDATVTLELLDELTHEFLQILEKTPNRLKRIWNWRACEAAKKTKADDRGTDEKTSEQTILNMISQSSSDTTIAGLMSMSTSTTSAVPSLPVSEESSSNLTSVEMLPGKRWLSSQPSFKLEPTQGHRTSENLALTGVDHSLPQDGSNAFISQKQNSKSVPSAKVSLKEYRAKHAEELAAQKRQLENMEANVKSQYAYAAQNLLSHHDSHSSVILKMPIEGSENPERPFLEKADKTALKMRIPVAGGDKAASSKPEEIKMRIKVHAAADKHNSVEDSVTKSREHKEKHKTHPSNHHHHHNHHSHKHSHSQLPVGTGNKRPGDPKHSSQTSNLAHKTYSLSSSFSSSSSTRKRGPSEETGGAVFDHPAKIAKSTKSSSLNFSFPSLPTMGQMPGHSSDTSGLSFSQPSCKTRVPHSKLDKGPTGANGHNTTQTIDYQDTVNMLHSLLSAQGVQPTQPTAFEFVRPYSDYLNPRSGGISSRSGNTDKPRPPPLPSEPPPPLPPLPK

inhibition at 0.5 µM (CDK-9/Cyclin T1; [1]) | inhibition at 0.5 µM (CDK-2/cyclin A; [2]) | inhibition at 0.5 µM (CDK-9/Cyclin T1; [3]) | inhibition at 0.5 µM (CDK-9/Cyclin T1; [4]) | inhibition at 0.5 µM (CDK-2/cyclin A; [5]) | inhibition at 0.5 µM (CDK-2/cyclin A; [6]) | Compound
> 70% | > 70% |  |  |  |  | Fc1cccc(-c2cnc3[nH]cc(-c4ccnc(NC5CCCCCC5)n4)c3c2)c1 [1A45, N-cycloheptyl-4-(5-(3-fluorophenyl)-1H-pyrrolo[2,3-b]pyridin-3-yl)pyrimidin-2-amine]
 |  | > 70% | > 70% | > 70% | > 70% | CCc1ccccc1-c1cnc2[nH]cc(-c3ccnc(NC4CCCCCC4)n3)c2c1 [1A50, N-cycloheptyl-4-(5-(2-ethylphenyl)-1H-pyrrolo[2,3-b]pyridin-3-yl)pyrimidin-2-amine]
> 70% | > 70% |  |  |  |  | Fc1cccc(-c2cnc3[nH]cc(-c4ccnc(NC5CCCC5)n4)c3c2)c1 [1A25, N-cyclopentyl-4-(5-(3-fluorophenyl)-1H-pyrrolo[2,3-b]pyridin-3-yl)pyrimidin-2-amine]
 |  | > 70% | > 70% | > 70% | > 70% | c1ccc2c(-c3cnc4[nH]cc(-c5ccnc(NC6CCCCCC6)n5)c4c3)nccc2c1 [1A60, N-cycloheptyl-4-(5-(isoquinolin-1-yl)-1H-pyrrolo[2,3-b]pyridin-3-yl)pyrimidin-2-amine]
> 50% | > 50% |  | > 50% |  | > 50% | Cc1ccc(-c2cnc3[nH]cc(-c4ccnc(NC5CCCCCC5)n4)c3c2)cc1 [1A46, N-cycloheptyl-4-(5-(p-tolyl)-1H-pyrrolo[2,3-b]pyridin-3-yl)pyrimidin-2-amine]
> 50% | > 50% |  | > 50% |  | > 50% | CCc1ccccc1-c1cnc2[nH]cc(-c3ccnc(NC4CCCC4)n3)c2c1 [1A30, N-cyclopentyl-4-(5-(2-ethylphenyl)-1H-pyrrolo[2,3-b]pyridin-3-yl)pyrimidin-2-amine]
> 50% | > 50% |  | > 50% |  | > 50% | c1ccc2c(-c3cnc4[nH]cc(-c5ccnc(NC6CCCC6)n5)c4c3)nccc2c1 [1A40, N-cyclopentyl-4-(5-(isoquinolin-1-yl)-1H-pyrrolo[2,3-b]pyridin-3-yl)pyrimidin-2-amine]
> 50% | > 50% |  | > 50% |  | > 50% | Cc1cccc(-c2cnc3[nH]cc(-c4ccnc(NC5CCCCCC5)n4)c3c2)c1 [1A47, N-cycloheptyl-4-(5-(m-tolyl)-1H-pyrrolo[2,3-b]pyridin-3-yl)pyrimidin-2-amine]
> 70% | > 70% |  | > 70% |  | > 70% | CSc1ccc(-c2cnc3[nH]cc(-c4ccnc(NC5CC5)n4)c3c2)cc1 [1A8, N-cyclopropyl-4-(5-(4-(methylthio)phenyl)-1H-pyrrolo[2,3-b]pyridin-3-yl)pyrimidin-2-amine]
 |  | > 50% | > 50% | > 50% | > 50% | CSc1ccccc1-c1cnc2[nH]cc(-c3ccnc(NCCc4ccccc4)n3)c2c1 [1B9, 4-(5-(2-(methylthio)phenyl)-1H-pyrrolo[2,3-b]pyridin-3-yl)-N-phenethylpyrimidin-2-amine]
 |  | > 70% | > 70% | > 70% | > 70% | c1cc(-c2c[nH]c3ncc(-c4ccoc4)cc23)nc(NC2CCCCCC2)n1 [1A56, N-cycloheptyl-4-(5-(furan-3-yl)-1H-pyrrolo[2,3-b]pyridin-3-yl)pyrimidin-2-amine]
> 50% | > 50% |  | > 50% |  | > 50% | c1cc(-c2c[nH]c3ncc(-c4ccoc4)cc23)nc(NC2CCCC2)n1 [1A36, N-cyclopentyl-4-(5-(furan-3-yl)-1H-pyrrolo[2,3-b]pyridin-3-yl)pyrimidin-2-amine]
 |  | > 50% | > 50% | > 50% | > 50% | CCc1ccccc1-c1cnc2[nH]cc(-c3ccnc(NCCc4ccccc4)n3)c2c1 [1B10, 4-(5-(2-ethylphenyl)-1H-pyrrolo[2,3-b]pyridin-3-yl)-N-phenethylpyrimidin-2-amine]
> 70% | > 70% |  | > 70% |  | > 70% | FC(F)(F)c1cccc(-c2cnc3[nH]cc(-c4ccnc(NC5CC5)n4)c3c2)c1 [1A4, N-cyclopropyl-4-(5-(3-(trifluoromethyl)phenyl)-1H-pyrrolo[2,3-b]pyridin-3-yl)pyrimidin-2-amine]
> 50% | > 50% |  | > 50% |  | > 50% | FC(F)(F)c1cccc(-c2cnc3[nH]cc(-c4ccnc(NC5CCCC5)n4)c3c2)c1 [1A24, N-cyclopentyl-4-(5-(3-(trifluoromethyl)phenyl)-1H-pyrrolo[2,3-b]pyridin-3-yl)pyrimidin-2-amine]
 |  | > 50% | > 50% | > 50% | > 50% | CC(=O)c1ccc(-c2cnc3[nH]cc(-c4ccnc(NCCc5ccccc5)n4)c3c2)cc1 [1B13, 1-(4-(3-(2-(phenethylamino)pyrimidin-4-yl)-1H-pyrrolo[2,3-b]pyridin-5-yl)phenyl)ethan-1-one]
> 70% | > 70% |  | > 70% |  | > 70% | CSc1ccccc1-c1cnc2[nH]cc(-c3ccnc(NC4CC4)n3)c2c1 [1A9, N-cyclopropyl-4-(5-(2-(methylthio)phenyl)-1H-pyrrolo[2,3-b]pyridin-3-yl)pyrimidin-2-amine]
 |  | > 70% | > 70% | > 70% | > 70% | Cc1cccc(-c2cnc3[nH]cc(-c4ccnc(NCCc5ccccc5)n4)c3c2)c1 [1B7, N-phenethyl-4-(5-(m-tolyl)-1H-pyrrolo[2,3-b]pyridin-3-yl)pyrimidin-2-amine]
 |  | > 50% | > 50% | > 50% | > 50% | c1ccc(CCNc2nccc(-c3c[nH]c4ncc(-c5nccc6ccccc56)cc34)n2)cc1 [1B20, 4-(5-(isoquinolin-1-yl)-1H-pyrrolo[2,3-b]pyridin-3-yl)-N-phenethylpyrimidin-2-amine]
 |  | > 50% | > 50% | > 50% | > 50% | c1ccc(CCNc2nccc(-c3c[nH]c4ncc(-c5cccc6ccccc56)cc34)n2)cc1 [1B14, 4-(5-(naphthalen-1-yl)-1H-pyrrolo[2,3-b]pyridin-3-yl)-N-phenethylpyrimidin-2-amine]
< 50% | < 50% |  |  |  |  | FC(F)(F)c1ccc(-c2cnc3[nH]cc(-c4ccnc(NC5CCCC5)n4)c3c2)cc1 [1A21, N-cyclopentyl-4-(5-(4-(trifluoromethyl)phenyl)-1H-pyrrolo[2,3-b]pyridin-3-yl)pyrimidin-2-amine]
 |  | > 70% | > 70% | > 70% | > 70% | c1ccc2[nH]c(-c3cnc4[nH]cc(-c5ccnc(NC6CCCCCC6)n5)c4c3)cc2c1 [1A59, 4-(5-(1H-indol-2-yl)-1H-pyrrolo[2,3-b]pyridin-3-yl)-N-cycloheptylpyrimidin-2-amine]
 |  | > 50% | > 50% | > 50% | > 50% | c1ccc(CCNc2nccc(-c3c[nH]c4ncc(-c5cc6ccccc6[nH]5)cc34)n2)cc1 [1B19, 4-(5-(1H-indol-2-yl)-1H-pyrrolo[2,3-b]pyridin-3-yl)-N-phenethylpyrimidin-2-amine]
< 50% | > 50% |  | > 50% |  | > 50% | c1ccc2c(-c3cnc4[nH]cc(-c5ccnc(NC6CC6)n5)c4c3)nccc2c1 [1A20, N-cyclopropyl-4-(5-(isoquinolin-1-yl)-1H-pyrrolo[2,3-b]pyridin-3-yl)pyrimidin-2-amine]
 |  | > 70% | > 70% | > 70% | > 70% | Cc1ccc(-c2cnc3[nH]cc(-c4ccnc(NCCc5ccccc5)n4)c3c2)cc1 [1B6, N-phenethyl-4-(5-(p-tolyl)-1H-pyrrolo[2,3-b]pyridin-3-yl)pyrimidin-2-amine]
 |  | > 70% | > 70% | > 70% | > 70% | FC(F)(F)c1cccc(-c2cnc3[nH]cc(-c4ccnc(NCCc5ccccc5)n4)c3c2)c1 [1B4, N-phenethyl-4-(5-(3-(trifluoromethyl)phenyl)-1H-pyrrolo[2,3-b]pyridin-3-yl)pyrimidin-2-amine]
 |  | > 70% | > 70% | > 70% | > 70% | O=Cc1ccc(-c2cnc3[nH]cc(-c4ccnc(NC5CCCCCC5)n4)c3c2)cc1 [1A53, 4-(3-(2-(cycloheptylamino)pyrimidin-4-yl)-1H-pyrrolo[2,3-b]pyridin-5-yl)benzaldehyde]

From patent EP3383875B1, “3-PYRIMIDINYL PYRROLO [2,3-B] PYRIDINE AS ANTICANCER AGENTS AND THE PROCESS FOR THE PREPARATION THEREOF” (Council Of Scientific & Industrial Research, priority 2015, dated 2017)
